Measured values reported in patent US7671028B2, “Peptides that antagonize FPR class receptor mediated signaling” (POSTECH Foundation, priority 2004, dated 2010).
Where a SMILES comes first, the peptide text is derived from it. Where no end group is shown, it is not given here. [ ]: non-standard residue; d: D form.

Tests used:
human neutrophils = assay: Superoxide generation in human neutrophils (cytochrome c reduction); format: cell-based; conditions: agonist alone, concentration-dependent
Method: FIGS. 7A-7D show effects of WRW^4 (SEQ ID NO:4) on the Aβ42-induced superoxide generation and chemotaxis in human neutrophils. […] Cytochrome c reduction was monitored, as described in EXAMPLES. The results shown are representative of four independent experiments (A, B). Chemotaxis assays were performed using a modified Boyden chamber assay, as described in EXAMPLES. […] The data are presented as mean±SE of three independent experiments each performed in duplicate (C, D).
Superoxide anion generation was determined by measuring cytochrome c reduction using a microtiter 96 well plate ELISA reader (Bio-Tekinstruments, EL312e, Winooski, Vt.) as previously described (23). Human neutrophils (1×10^6 cells/100 μl of RPMI 1640 medium per well of a 96-well plate) were preincubated with 50 μM cytochrome c at 37° C. for 1 min and then incubated with the indicated concentrations of peptides. Superoxide generation was determined for the change in light absorption at 550 nm over 5 minutes at 1 min intervals.
Superoxide generation is one of the important functions of phagocytic leukocytes like neutrophils (28).

FPRL1 = target: T1, FPRL1 (Homo sapiens, UniProt P25090); assay: WKYMVm-induced [Ca2+]i increase in FPRL1-expressing RBL-2H3 cells (fura-2); format: cell-based; conditions: inhibition of FPRL1 agonist-induced intracellular calcium increase; peptide added before agonist
T1 construct: expressed in transfected cells; host or cells: RBL-2H3 (rat basophilic leukaemia) cells
T1 sequence (P25090 1-351): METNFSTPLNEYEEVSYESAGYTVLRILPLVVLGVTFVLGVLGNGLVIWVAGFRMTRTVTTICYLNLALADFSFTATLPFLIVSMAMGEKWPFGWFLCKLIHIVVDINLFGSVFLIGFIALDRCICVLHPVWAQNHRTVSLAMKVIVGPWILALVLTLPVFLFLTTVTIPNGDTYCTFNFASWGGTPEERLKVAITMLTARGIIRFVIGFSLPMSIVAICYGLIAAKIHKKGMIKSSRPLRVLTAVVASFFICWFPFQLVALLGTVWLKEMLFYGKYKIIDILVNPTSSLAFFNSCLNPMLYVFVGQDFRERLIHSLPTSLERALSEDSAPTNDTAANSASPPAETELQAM
Method: FIGS. 3A-3B show effects of WRW^4 (SEQ ID NO:4) on the WKYMVm (SEQ ID NO:3)-induced [Ca^2+]i rise in FPRL1 expressing RBL-2H3 cells. Fura-2-loaded FPRL1-expressing RBL-2H3 cells were stimulated with vehicle or WRW^4 (SEQ ID NO:4) (10 μM) and then with WKYMVm (SEQ ID NO:3) (10 nM); or FPRL1-expressing RBL-2H3 cells were sensitized with DNP-specific IgE, loaded with fura-2, and activated with the antigen DNP-HSA (1 μg/ml). The changes in 340 nm/380 nm were monitored. The results are representative of three independent experiments (A). Cells were stimulated with various concentrations of WRW^4 (SEQ ID NO:4) prior to adding 10 nM of WKYMVm (SEQ ID NO:3) or 1 μg/ml of DNP-HSA. Peak levels of [Ca^2+]i increase were monitored. The results shown are the means±SE of four independent experiments (B).
Intracellular calcium concentration ([Ca^2+]i) levels were determined by Grynkiewicz's method using fura-2/AM (25). Briefly, prepared cells were incubated with 3 μM fura-2/AM at 37° C. for 50 min in fresh serum free RPMI 1640 medium with continuous stirring. For DNP-HSA stimulation, RBL-2H3 cells were sensitized with 1 μg/ml mouse DNP-specific IgE overnight prior to fura-2 loading (26), and 2×10^6 cells were aliquoted for each assay in Ca^2+ free Locke's solution (154 mM NaCl, 5.6 mM KCl, 1.2 mM MgCl2, 5 mM HEPES, pH 7.3, 10 mM glucose, and 0.2 mM EGTA). The fluorescence changes at excitation wavelengths of 340 nm and 380 nm and a common emission wavelength of 500 nm were measured, and the calibrated fluorescence ratio was converted to [Ca^2+]i.
The stimulation of FPRL1 by WKYMVm (SEQ ID NO:3) elicited a [Ca^2+]i increase in FPRL1-expressing RBL-2H3 cells (FIG. 3A). To investigate whether the inventive peptides inhibited WKYMVm (SEQ ID NO:3)-induced [Ca^2+]i increase, we stimulated fura-2 loaded FPRL1-expressing RBL-2H3 cells with various concentrations of WRW^4 (SEQ ID NO:4), and subsequently stimulated with effective concentration of WKYMVm (SEQ ID NO:3). […] To confirm specific inhibition by WRW^4 (SEQ ID NO:4) on FPRL1-induced signaling, we examined the effect of WRW^4 (SEQ ID NO:4) on another extracellular signal-induced [Ca^2+]i increase. FcεRI cross-linking has been reported to induce a [Ca^2+]i increase in RBL-2H3 cells (26). Stimulation of FPRL1-expressing RBL-2H3 cells (sensitized with 1 μg/ml mouse DNP-specific IgE) with 1 μg/ml DNP-HSA caused a dramatic increase in [Ca^2+]i (FIG. 3A).
Methods and principles of assaying for the effects of a set of diverse peptides on the intracellular concentration of calcium when the peptides are contacted with the cells bearing FPRL1 before the FPRL1 agonist is added is described in Example 1.5 above, and further details of initial experimentation using the peptides is described in Example 2.2.

**Q.** For “Aβ42: amyloid β42 peptide, cleavage fragment of amyloid precursor protein, endogenous ligand for FPRL1”, which “peptide concentration of maximal superoxide generating effect” value (human neutrophils) is on record?
**A.** 40 µM

**Q.** For `CSCC[C@H](NC(=O)[C@H](Cc1c[nH]c2ccccc12)NC(=O)[C@H](Cc1c[nH]c2ccccc12)NC(=O)[C@H](CCCNC(=N)N)NC(=O)[C@H](Cc1c[nH]c2ccccc12)NC(=O)[C@H](N)Cc1c[nH]c2ccccc12)C(N)=O` [wWRWWM] (H-[dW]WRWWM-NH2), which IC50 (FPRL1) is on record?
**A.** 0.0082 ± 0.0006 µM

**Q.** How did the IC50 (FPRL1) turn out when `N=C(N)NCCC[C@H](NC(=O)[C@@H](N)Cc1c[nH]c2ccccc12)C(=O)N[C@@H](Cc1c[nH]c2ccccc12)C(N)=O` [SEQ ID NO:7] (H-Trp-Arg-Trp-NH2) was run?
**A.** > 10 µM

**Q.** With `NC(=O)[C@@H](Cc1c[nH]c2ccccc12)NC(=O)[C@H](Cc1c[nH]c2ccccc12)NC(=O)[C@H](Cc1c[nH]c2ccccc12)NC(=O)[C@@H](N)Cc1c[nH]c2ccccc12` [SEQ ID NO:35] (H-WWW[dW]-NH2) as the compound, how does the IC50 (FPRL1) read?
**A.** > 10 µM

**Q.** How did the IC50 (FPRL1) turn out when WRRWWW-NH2 [SEQ ID NO:33] was run?
**A.** > 10 µM

**Q.** For `NC(=O)[C@@H](Cc1c[nH]c2ccccc12)NC(=O)[C@H](Cc1c[nH]c2ccccc12)NC(=O)[C@H](Cc1c[nH]c2ccccc12)NC(=O)[C@H](Cc1c[nH]c2ccccc12)NC(=O)[C@H](Cc1c[nH]c2ccccc12)NC(=O)[C@@H](N)Cc1c[nH]c2ccccc12` [SEQ ID NO:32] (H-WWWWW[dW]-NH2), which IC50 (FPRL1) is on record?
**A.** > 10 µM

**Q.** How did the IC50 (FPRL1) turn out when WWWWWW-NH2 [SEQ ID NO:31] was run?
**A.** > 10 µM

**Q.** Which IC50 (FPRL1) does the source give for “H-WRWWWW-NH2 [SEQ ID NO:4, Trp-Arg-Trp-Trp-Trp-Trp-CONH2]” here?
**A.** 1 ± 0.21 µM

**Q.** With `N=C(N)NCCC[C@H](NC(=O)[C@@H](N)Cc1c[nH]c2ccccc12)C(=O)N[C@@H](Cc1c[nH]c2ccccc12)C(=O)N[C@@H](Cc1c[nH]c2ccccc12)C(N)=O` [SEQ ID NO:34] (H-WRWW-NH2) as the compound, how does the IC50 (FPRL1) read?
**A.** > 10 µM

**Q.** Which IC50 (FPRL1) does the source give for `N=C(N)NCCC[C@H](N)C(=O)N[C@@H](Cc1c[nH]c2ccccc12)C(=O)N[C@@H](Cc1c[nH]c2ccccc12)C(=O)N[C@H](Cc1c[nH]c2ccccc12)C(N)=O` [SEQ ID NO:36] (H-RWW[dW]-NH2) here?
**A.** > 10 µM
